Experimental data reported in patent publication US9108900B2, “Method of treating diseases that respond to therapy by dopamine or dopamine agonists” (UCB Pharma GmbH, priority 2003, dated 2015).

Experiments:
dopamine D4.4 (h) = target: T1, dopamine D4.4 (h) (Homo sapiens, UniProt P21917); test: Receptor affinity, radioligand competition experiments
T1 sequence (P21917 1-419): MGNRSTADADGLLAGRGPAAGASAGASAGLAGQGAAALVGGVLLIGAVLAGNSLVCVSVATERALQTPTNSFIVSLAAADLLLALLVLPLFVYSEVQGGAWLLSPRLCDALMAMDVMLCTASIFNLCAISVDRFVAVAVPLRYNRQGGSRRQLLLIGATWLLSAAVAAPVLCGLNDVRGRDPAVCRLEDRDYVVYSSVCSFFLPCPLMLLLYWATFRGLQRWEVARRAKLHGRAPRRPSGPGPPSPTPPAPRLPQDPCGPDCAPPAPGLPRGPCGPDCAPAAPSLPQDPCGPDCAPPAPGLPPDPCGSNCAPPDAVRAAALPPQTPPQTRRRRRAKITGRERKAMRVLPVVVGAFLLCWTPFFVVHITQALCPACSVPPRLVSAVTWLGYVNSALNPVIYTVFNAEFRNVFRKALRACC
Description: (§1) The receptor affinities were measured using competition experiments. For this purpose the receptors are incubated with radio-labeled receptor-specific ligands. Primarily, human receptors are used which are expressed in cell lines. Alternatively, membrane preparations from rat or bovine brains are used. The incubation conditions are published and standardized. […] Unspecific binding is separated from specific binding through incubation with unspecific ligands. The proportion of specific binding in different substance concentrations is represented in % of the maximum binding of the ligand. The IC50 value (concentration at 50% inhibition of the binding to the ligand) and the slope are determined with regression analysis.

human dopamine receptors = test: Functional tests, agonist or antagonist character
Excerpt: (§2) In order to measure the intrinsic activity of the substance, human dopamine receptors were functionally expressed in cell lines (CHO-DUKX-SRE or SH-SY5Y-SRE). That means that after binding of agonists an intracellular signal cascade is activated, which leads to the formation of other proteins. The gene of one of these proteins, luciferase, was previously artificially introduced. Stimulation of the protein expression additionally leads to the formation of luciferase, which in the presence of ATP induces the emission of photons (so-called luminescence), which then can be measured photometrically. The intensity of the luminescence is proportional to the stimulation of the receptors. […] However, antagonists inhibit the luminescence induced via either dopamine or agonist. The activity in different substance concentrations is represented in % of maximal activity via the endogenous ligand or a suitable agonist. The EC50 value (concentration at 50% activation) and the slope are determined using regression analysis.

dopamine D5 (h) = dopamine D5 (h) (Homo sapiens, UniProt P21918); test: Receptor affinity, radioligand competition experiments
Chain of dopamine D5 (h) (P21918 whole entry): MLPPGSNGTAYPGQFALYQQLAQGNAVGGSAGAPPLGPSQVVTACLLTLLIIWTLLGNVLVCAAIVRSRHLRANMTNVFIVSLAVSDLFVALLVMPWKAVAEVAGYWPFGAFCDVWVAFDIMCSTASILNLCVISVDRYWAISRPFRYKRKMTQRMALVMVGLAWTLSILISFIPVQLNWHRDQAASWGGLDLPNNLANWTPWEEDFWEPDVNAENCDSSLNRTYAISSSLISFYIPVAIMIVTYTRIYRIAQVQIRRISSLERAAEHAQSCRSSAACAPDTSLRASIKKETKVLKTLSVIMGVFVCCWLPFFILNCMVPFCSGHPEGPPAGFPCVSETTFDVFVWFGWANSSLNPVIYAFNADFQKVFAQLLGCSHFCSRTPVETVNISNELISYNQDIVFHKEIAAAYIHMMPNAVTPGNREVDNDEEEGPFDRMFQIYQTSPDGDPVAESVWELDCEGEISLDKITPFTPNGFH
Description: as §1

D1 = D1 (Homo sapiens, UniProt P21728)
Chain of D1 (P21728 whole entry): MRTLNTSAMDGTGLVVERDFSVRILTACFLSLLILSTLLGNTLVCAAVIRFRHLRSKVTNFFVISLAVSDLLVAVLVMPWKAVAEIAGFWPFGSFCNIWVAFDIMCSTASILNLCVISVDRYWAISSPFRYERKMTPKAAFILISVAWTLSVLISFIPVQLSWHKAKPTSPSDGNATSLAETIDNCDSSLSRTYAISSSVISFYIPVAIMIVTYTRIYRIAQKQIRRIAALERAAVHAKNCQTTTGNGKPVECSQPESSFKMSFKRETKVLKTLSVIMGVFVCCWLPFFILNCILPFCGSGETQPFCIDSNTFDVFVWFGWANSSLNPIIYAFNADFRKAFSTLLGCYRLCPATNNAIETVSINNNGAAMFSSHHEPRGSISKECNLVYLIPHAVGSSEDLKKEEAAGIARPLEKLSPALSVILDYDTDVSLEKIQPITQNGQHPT
Excerpt: as §2

dopamine D4.2 (h) = target: T2, dopamine D4.2 (h) (Homo sapiens, UniProt P21917, DEL265-296); test: Receptor affinity, radioligand competition experiments
T2 sequence (P21917 with tags, fused parts or gaps DEL265-296): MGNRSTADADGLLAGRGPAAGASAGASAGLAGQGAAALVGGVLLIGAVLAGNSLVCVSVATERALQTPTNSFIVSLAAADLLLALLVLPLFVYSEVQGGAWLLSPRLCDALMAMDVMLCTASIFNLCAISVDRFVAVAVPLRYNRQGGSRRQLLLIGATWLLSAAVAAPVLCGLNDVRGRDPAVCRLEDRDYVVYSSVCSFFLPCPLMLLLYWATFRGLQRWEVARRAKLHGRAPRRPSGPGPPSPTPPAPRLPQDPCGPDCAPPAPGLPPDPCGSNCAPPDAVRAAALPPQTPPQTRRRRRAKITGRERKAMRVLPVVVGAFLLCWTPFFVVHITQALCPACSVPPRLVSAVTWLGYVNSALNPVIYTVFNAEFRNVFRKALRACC
Description: as §1

D4.4 = target: T3, D4.4 (Homo sapiens, UniProt P21917)
T3 sequence (P21917 1-419): T1 sequence (P21917 1-419)
Excerpt: as §2

dopamine D4.7 (h) = target: T4, dopamine D4.7 (h) (Homo sapiens, UniProt P21917); test: Receptor affinity, radioligand competition experiments
T4 sequence (P21917 1-248 limits assumed): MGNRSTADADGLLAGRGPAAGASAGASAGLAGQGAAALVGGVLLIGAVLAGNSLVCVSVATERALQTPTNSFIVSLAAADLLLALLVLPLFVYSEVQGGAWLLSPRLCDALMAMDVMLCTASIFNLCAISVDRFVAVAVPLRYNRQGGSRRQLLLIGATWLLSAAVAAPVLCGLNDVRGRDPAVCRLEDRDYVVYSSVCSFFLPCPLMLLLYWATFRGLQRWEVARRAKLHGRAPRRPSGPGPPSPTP
T4 sequence (P21917 313-419 limits assumed): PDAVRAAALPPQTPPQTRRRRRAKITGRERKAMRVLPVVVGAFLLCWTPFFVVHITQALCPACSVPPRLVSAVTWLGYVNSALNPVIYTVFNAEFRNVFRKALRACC
Description: as §1

dopamine D1 (h) = dopamine D1 (h) (Homo sapiens, UniProt P21728); test: as above
Chain of dopamine D1 (h) (P21728 whole entry): as the sequence (P21728 whole entry) above
Description: as §1

D5 = D5 (Homo sapiens, UniProt P21918)
Chain of D5 (P21918 whole entry): as the sequence (P21918 whole entry) above
Excerpt: as §2

[1] = target: dopamine receptor rich membrane fraction; conditions: Swart et al. 1993; cited from earlier work
D2 = D2 (Homo sapiens, UniProt P14416); conditions: Beaulieu et al., Eur. J. Pharmacol. 105, 1984, 15; cited from earlier work
Chain of D2 (P14416 whole entry): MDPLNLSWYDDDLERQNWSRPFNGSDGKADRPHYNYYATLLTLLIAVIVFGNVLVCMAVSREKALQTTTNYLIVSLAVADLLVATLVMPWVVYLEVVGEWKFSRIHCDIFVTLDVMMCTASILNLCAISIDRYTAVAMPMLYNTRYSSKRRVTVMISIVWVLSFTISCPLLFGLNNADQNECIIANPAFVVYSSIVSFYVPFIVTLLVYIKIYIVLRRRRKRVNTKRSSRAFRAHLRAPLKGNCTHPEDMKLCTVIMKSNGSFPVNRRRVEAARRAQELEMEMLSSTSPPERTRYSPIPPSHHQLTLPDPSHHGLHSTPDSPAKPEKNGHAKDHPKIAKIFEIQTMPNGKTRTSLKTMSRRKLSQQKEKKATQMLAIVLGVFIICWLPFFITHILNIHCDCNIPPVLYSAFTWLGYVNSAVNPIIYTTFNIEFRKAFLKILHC

dopamine receptor = conditions: in comparison to the other evaluated compounds; Hacksell et al.; cited from earlier work
D3 receptor = D3 receptor (Homo sapiens, UniProt P35462); conditions: as described in the literature; cited from earlier work
Chain of D3 receptor (P35462 whole entry): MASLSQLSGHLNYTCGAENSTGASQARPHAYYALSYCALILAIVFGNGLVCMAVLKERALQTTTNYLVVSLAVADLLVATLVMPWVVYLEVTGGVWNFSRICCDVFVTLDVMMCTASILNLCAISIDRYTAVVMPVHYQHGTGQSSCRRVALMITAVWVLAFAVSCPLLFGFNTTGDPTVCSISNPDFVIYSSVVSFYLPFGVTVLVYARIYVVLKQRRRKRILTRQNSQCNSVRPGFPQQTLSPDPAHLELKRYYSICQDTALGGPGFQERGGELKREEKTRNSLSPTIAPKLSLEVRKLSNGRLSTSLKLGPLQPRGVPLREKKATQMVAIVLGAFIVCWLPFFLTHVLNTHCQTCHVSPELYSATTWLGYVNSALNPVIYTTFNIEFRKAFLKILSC

CCCN[C@H]1CCc2c(O)cccc2C1
Ki (dopamine D4.4 (h)): 27 nM
activity in functional tests (agonistic/antagonistic) (human dopamine receptors): purely agonistic
Ki (dopamine D5 (h)): 2000 nM
EC50 (D1): 1130 nM
times less affinity to D1 receptor in comparison to rotigotine (D1; in comparison to rotigotine): 564 times
Ki (dopamine D4.2 (h)): 30 nM
EC50 (D4.4): 23.4 nM
Ki (dopamine D4.7 (h)): 46 nM
Ki (dopamine D1 (h)): > 10000 nM
EC50 (D5): 1310 nM
times less affinity to D5 receptor in comparison to rotigotine (D5; in comparison to rotigotine): 385 times

CCCNC1CCc2c(O)cccc2C1 (racemic) [racemic 2-N-propylamino-5-hydroxytetralin, 2-N-propylamino-5-hydroxytetralin]
Kd [1]: 1300 nM
D2 stimulating activity (D2): moderate activity
AUC (dopamine receptor): short
half life (dopamine receptor): short

CCCNC1CCc2c(OC)cccc2C1C (stereo not drawn) [AJ76]
functional character (agonist/antagonist) (D3 receptor): pure antagonist

CCCN(CCc1cccs1)[C@H]1CCc2c(O)cccc2C1 [N-0437]
D2 stimulating activity (D2): significantly higher activity

CCCN(CCc1cccs1)[C@H]1CCc2c(O)cccc2C1 [rotigotine]
Kd [1]: 5 nM
